# How the values were obtained:
# [1] = biological target: Cyclin-dependent kinase 4/6 (Homo sapiens) (UniProt P11802+Q00534); assay: Inhibition of CDK4/6 in human MDA-MB-231 cells assessed as reduction in Rb phosphorylation at Ser780 after 24 hrs by western blot analysis; assay type: cell-based; conditions: dose 0.5-4 µM
# [2] = biological target: Cyclin-dependent kinase 1/cyclin B1 (Homo sapiens, UniProt P06493); assay: Inhibition of CDK1/cyclin B (unknown origin); assay type: protein-complex assay
# MDA-MB-231 [3] = assay: Induction of cell cycle arrest in human MDA-MB-231 cells assessed as accumulation at G1 phase at 1.5 uM after 12 hrs by propidium iodide staining-based flow cytometric analysis (reference value: 53.11%); assay type: functional
# CDK4/Cyclin D3 = CDK4/Cyclin D3 (Homo sapiens, UniProt P11802); assay: Inhibition of CDK4/Cyclin D3 (unknown origin) by mobility shift assay; assay type: protein-complex assay
# MDA-MB-231 [4] = assay: Induction of apoptosis in human MDA-MB-231 cells assessed as early apoptotic cells at 2.5 uM after 24 hrs by Annexin-V/PI-staining based flow cytometry (reference value: 2.67%); assay type: functional
# [5] = Inhibition of clone formation in human MDA-MB-231 cells at 0.625 uM after 14 days by crystal violet staining based-colony formation assay; assay type: functional; conditions: MDA-MB-231, 336 h, time 14 day
# CDK7/Cyclin H/MNAT1 = CDK7/Cyclin H/MNAT1 (Homo sapiens, UniProt P50613); assay: Inhibition of CDK7/cyclin H/MAT1 (unknown origin); assay type: protein-complex assay
# MDA-MB-231 [6] = assay: Potency index, ratio of IC50 for Palbociclib to IC50 for test compound for antiproliferative activity against human MDA-MB-231 cells assessed as reduction in cell viability after 72 hrs by MTT assay; assay type: functional
# NCI-H1299 [7] = assay: Potency index, ratio of IC50 for Palbociclib to IC50 for test compound for antiproliferative activity against human H1299 cells assessed as reduction in cell viability after 72 hrs by MTT assay; assay type: functional
# [8] = biological target: T1, Cyclin-dependent kinase 4/cyclin D1 (Homo sapiens) (UniProt P11802+P24385); assay: Inhibition of CDK4/Cyclin D1 (unknown origin) at 200 nM using ATP by mobility shift assay; assay type: protein-complex assay
# [9] = biological target: T1, Cyclin-dependent kinase 4/cyclin D1 (Homo sapiens); assay: Inhibition of CDK4/Cyclin D1 (unknown origin) at 20 nM using ATP by mobility shift assay; assay type: protein-complex assay
# [10] = biological target: CDK6/cyclin D3 (Homo sapiens) (UniProt P30281+Q00534); assay: Inhibition of CDK6/Cyclin D3 (unknown origin) at 20 nM using ATP by mobility shift assay; assay type: protein-complex assay
# MDA-MB-231 [11] = assay: Induction of apoptosis in human MDA-MB-231 cells assessed as early apoptotic cells at 10 uM after 24 hrs by Annexin-V/PI-staining based flow cytometry (reference value: 2.67%); assay type: functional
# MDA-MB-231 [12] = assay: Induction of cell cycle arrest in human MDA-MB-231 cells assessed as accumulation at S phase at 0.75 uM after 12 hrs by propidium iodide staining-based flow cytometric analysis (reference value: 23.71%); assay type: functional
# NCI-H1299 [13] = assay: Antiproliferative activity against human NCI-H1299 cells assessed as reduction in cell viability after 72 hrs by MTT assay; assay type: functional, cell-based; conditions: NCI-H1299, 72 h
# Sequence of Cyclin-dependent kinase 1/cyclin B1 (P06493 whole entry): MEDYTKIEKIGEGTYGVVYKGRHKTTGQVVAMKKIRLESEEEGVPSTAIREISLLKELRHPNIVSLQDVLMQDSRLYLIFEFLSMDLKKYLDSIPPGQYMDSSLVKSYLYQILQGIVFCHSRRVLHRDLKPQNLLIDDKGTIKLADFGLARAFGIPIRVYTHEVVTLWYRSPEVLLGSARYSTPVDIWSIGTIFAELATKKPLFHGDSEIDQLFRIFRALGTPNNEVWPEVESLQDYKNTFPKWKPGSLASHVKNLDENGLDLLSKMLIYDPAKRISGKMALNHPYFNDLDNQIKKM
# Sequence of Cyclin-dependent kinase 1/cyclin B1 (P14635 whole entry, further chain): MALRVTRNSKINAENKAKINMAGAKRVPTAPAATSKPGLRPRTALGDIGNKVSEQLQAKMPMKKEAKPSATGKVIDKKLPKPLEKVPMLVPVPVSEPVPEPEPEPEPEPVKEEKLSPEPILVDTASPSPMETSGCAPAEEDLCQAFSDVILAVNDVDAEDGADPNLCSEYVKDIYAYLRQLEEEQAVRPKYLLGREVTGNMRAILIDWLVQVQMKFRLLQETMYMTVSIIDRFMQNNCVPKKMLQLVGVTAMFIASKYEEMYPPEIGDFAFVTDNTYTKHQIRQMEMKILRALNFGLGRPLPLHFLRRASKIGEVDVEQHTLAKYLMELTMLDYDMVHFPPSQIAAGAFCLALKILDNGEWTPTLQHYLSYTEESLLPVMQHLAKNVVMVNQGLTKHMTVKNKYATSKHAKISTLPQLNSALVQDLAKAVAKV
# Sequence of CDK4/Cyclin D3 (P11802 whole entry): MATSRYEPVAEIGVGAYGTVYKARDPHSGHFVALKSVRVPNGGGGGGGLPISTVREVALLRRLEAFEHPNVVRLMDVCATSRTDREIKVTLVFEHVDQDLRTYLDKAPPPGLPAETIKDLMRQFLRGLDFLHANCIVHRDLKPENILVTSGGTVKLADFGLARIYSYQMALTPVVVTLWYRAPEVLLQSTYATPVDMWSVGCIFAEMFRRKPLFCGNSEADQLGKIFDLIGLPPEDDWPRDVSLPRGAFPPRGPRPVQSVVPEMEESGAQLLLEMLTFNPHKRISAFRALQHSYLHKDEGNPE
# Sequence of CDK4/Cyclin D3 (P30281 whole entry, further chain): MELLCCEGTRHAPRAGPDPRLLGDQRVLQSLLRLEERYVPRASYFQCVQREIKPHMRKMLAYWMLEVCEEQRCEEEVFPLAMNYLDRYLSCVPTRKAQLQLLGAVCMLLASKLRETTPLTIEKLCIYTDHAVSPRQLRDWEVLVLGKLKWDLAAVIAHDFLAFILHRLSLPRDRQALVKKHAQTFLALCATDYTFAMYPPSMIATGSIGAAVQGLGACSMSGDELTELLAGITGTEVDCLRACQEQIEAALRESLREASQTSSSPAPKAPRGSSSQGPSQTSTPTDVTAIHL
# Sequence of Cyclin-dependent kinase 4/6 (Homo sapiens) (P11802 whole entry, looked up): as the sequence (P11802 whole entry) above
# Sequence of Cyclin-dependent kinase 4/6 (Homo sapiens) (Q00534 whole entry, looked up): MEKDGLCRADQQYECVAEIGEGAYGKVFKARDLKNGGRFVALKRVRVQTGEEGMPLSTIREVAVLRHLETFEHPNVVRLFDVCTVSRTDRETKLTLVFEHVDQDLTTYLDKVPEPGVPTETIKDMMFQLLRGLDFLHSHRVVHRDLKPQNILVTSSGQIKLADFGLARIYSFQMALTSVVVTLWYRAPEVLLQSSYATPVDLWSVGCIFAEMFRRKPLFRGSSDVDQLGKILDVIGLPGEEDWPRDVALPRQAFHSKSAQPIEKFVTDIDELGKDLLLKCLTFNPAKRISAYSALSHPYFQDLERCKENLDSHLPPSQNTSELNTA
# Sequence of CDK7/Cyclin H/MNAT1 (P51946 whole entry): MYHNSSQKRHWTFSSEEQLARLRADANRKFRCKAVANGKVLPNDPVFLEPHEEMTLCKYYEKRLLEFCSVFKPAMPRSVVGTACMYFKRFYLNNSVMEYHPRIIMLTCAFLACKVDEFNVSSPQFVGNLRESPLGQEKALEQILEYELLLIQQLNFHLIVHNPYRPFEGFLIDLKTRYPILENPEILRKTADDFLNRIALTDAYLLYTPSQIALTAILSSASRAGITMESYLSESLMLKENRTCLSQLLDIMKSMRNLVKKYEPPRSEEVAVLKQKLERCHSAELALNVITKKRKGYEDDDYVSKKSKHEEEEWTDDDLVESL
# Sequence of CDK7/Cyclin H/MNAT1 (P50613 whole entry): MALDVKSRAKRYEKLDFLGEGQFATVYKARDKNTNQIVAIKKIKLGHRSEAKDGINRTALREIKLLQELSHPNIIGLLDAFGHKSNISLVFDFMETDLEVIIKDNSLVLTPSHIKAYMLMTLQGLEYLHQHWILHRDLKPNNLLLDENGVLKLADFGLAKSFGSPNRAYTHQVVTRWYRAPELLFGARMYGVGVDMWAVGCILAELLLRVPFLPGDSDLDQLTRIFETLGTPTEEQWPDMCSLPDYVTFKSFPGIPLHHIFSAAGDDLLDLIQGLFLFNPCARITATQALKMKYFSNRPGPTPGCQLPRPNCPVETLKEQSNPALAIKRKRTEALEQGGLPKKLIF
# Sequence of CDK7/Cyclin H/MNAT1 (P51948 whole entry, further chain): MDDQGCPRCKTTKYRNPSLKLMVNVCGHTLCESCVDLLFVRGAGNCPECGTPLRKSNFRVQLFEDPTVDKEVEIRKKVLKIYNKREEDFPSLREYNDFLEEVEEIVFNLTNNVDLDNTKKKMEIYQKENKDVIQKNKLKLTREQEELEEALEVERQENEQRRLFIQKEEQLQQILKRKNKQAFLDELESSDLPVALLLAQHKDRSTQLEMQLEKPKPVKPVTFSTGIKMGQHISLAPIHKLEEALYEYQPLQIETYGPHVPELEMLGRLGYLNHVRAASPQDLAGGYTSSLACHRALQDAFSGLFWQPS
compound,measurement,setting,value
CC(=O)c1c(C)c2cnc(Nc3ccc(N4CCN(C(=O)CCl)CC4)cn3)nc2n(C2CCCC2)c1=O,inhibition,[1],Dose-Dependent Effect
same,IC50,[2],> 10000 nM
same,Activity,MDA-MB-231 [3],71.12%
same,IC50,CDK4/Cyclin D3,6.1 nM
same,Activity,MDA-MB-231 [4],17.09%
same,inhibition at 0.625 µM,[5],100%
same,IC50,CDK7/Cyclin H/MNAT1,> 3330 nM
same,Ratio IC50,MDA-MB-231 [6],4
same,Ratio IC50,NCI-H1299 [7],4
same,inhibition,[8],93.8%
same,inhibition,[9],61.7%
same,inhibition,[10],81.6%
same,Activity,MDA-MB-231 [11],68.48%
same,Activity,MDA-MB-231 [12],11.05%
same,IC50,NCI-H1299 [13],2490 nM

# From ChEMBL document CHEMBL4819081 (Eur J Med Chem, 2021)
